The numbers were not newly measured in article PMC9302689 (British Journal of Clinical Pharmacology, 2022), which cites them from elsewhere.

The conditions of data set [1]: cited from earlier work.
For data set [2] the following is noted: cited from earlier work. This is another data set of the same source.

In the case of `CNC1(c2ccccc2Cl)CCCCC1=O` (stereo not shown) [Ketamine], the NeuroCart effects result in data set [1] was “decreased saccadic peak velocity, adaptive tracking and alertness and increased body sway and psychedelic effects”.

Take `CN(C)CCCC1(c2ccc(F)cc2)OCc2cc(C#N)ccc21` (stereo not shown) [citalopram]: the “Effect on serum cortisol and prolactin levels” value in data set [2] is recorded as “increase levels of these hormones”.

Take `CN(C)CCC[C@@]1(c2ccc(F)cc2)OCc2cc(C#N)ccc21` [escitalopram]: the “Effect on serum cortisol and prolactin levels” value in data set [2] is “increase levels of these hormones”.

Buprenorphine: in data set [1], the NeuroCart effects entry was “decreased adaptive tracking and saccadic peak velocity and increased body sway”.
